# In patent US9884850B2, “Pyrimidine hydroxy amide compounds as HDAC6 selective inhibitors” (Acetylon Pharmaceuticals, Inc., priority 2014, dated 2018):
# Entries after “also recorded” stand apart in the source; their conditions may differ.
# Tested on: taxol induced neuropathic pain model in rats
# Experiment: Taxol induced neuropathic pain study in rats (Von Frey testing)
# Format: in vivo, rat
# Conditions: taxol treated rats, 1, 3, 10 mg/kg PO b.i.d.
# Experimental: This study included a histology endpoint in addition to the von Frey testing for paw sensitivity.
# Neuropathic pain is induced by a 0.5 ml/kg injection of Taxol (2 mg/kg) administered IP on days 0-12. The development of neuropathic pain is confirmed by measuring mechanical allodynia (Von Frey test) on study day 13.
# Allodynic response to tactile stimulation is assessed using the Von Frey apparatus (Touch Test®).
# The rat will be placed in an enclosure and positioned on a metal mesh surface, but allowed to move freely. The rats' cabins are covered with red cellophane to diminish environmental disturbances. The test begins after a cessation of exploratory behavior. The set of Von Frey monofilaments provide an approximate logarithmic scale of actual force and a linear scale of perceived intensity.
# The operating principle: when the tip of a fiber of given length and diameter is pressed against the skin at right angles, the force of application increases as long as the researcher continues to advance the probe until the fiber bends. After the fiber bends, the probe continues to advance, causing the fiber to bend more, but without additional force being applied. […] The Touch Test™ Sensory Evaluator can be used on the plantar surfaces of the rat's foot. The animal indicates sensation by pulling back its paw. […]
smiles,measurement,value
O=C(NO)c1cnc(NC2(c3ccccc3)CCC(F)(F)CC2)nc1 [Compound 003],Effect on nociception / tactile allodynia (Von Frey),completely reversed nociception; also recorded: reduced tactile allodynia
